# Test results published in PMC3216401 (Antiviral research, 2011).
# Read-outs that look alike come from different tables or passages of the source.
# Legend:
# [1] = tested on: A/Hong Kong/2369/2009 (H1N1) oseltamivir resistant; experiment: microbe, parasite or virus in culture; details: Influenza A virus, H1N1, MDCK, read-out: IC50, Neutral Red Uptake Assay
# [2] = tested on: A/Hong Kong/2369/2009 (H1N1) oseltamivir resistant
# [3] = tested on: A/Hong Kong/2369/2009 (H1N1) oseltamivir resistant; experiment: microbe, parasite or virus in culture; assay type: cell-based; details: Influenza A virus, H1N1, MDCK, read-out: IC90, VYR Assay
# [4] = tested on: A/Hong Kong/2369/2009 (H1N1) oseltamivir resistant; remark: listed apart in the source
# [5] = tested on: A/Hong Kong/2369/2009 (H1N1) oseltamivir resistant; experiment: microbe, parasite or virus in culture; details: Influenza A virus, H1N1, MDCK, read-out: IC50, Visual Assay
structure (smiles),measurement,setting,value
"Nc1ccn([C@@H]2O[C@H](CO)[C@@H](O)C2(F)F)c(=O)n1 [2’-deoxy-2’, 2’-difluorocytidine, reference compound]",IC50,[1],54 nM
same,"SI (CC50/IC50), Visual Assay",[2],>200
same,IC90,[3],30 nM
same,"SI (CC50/IC50), Neutral Red Uptake Assay",[4],>1900
same,IC50,[5],50 nM
"Nc1ccn([C@@H]2O[C@H](CO)[C@@H](O)[C@H]2F)c(=O)n1 [2’-deoxy-2’-fluorocytidine, 2'-deoxy-2'-fluorocytidine]",IC50,[1],7800 nM
same,"SI (CC50/IC50), Visual Assay",[2],>48
same,IC90,[3],6300 nM
same,"SI (CC50/IC50), Neutral Red Uptake Assay",[4],>12.8
same,IC50,[5],2100 nM
